In paper PMC3706088 (Journal of medicinal chemistry, 2013):
Entries after “also recorded” stand apart in the source; their conditions may differ. Like-named read-outs stand apart in the source and are kept apart here.

How the values were obtained:
[1] = tested on: Female Sprague-Dawley rats; assay: Antinociception: tail-flick procedure in rats over 6 h after injection; conditions: rat, up to doses of 10.0 mg/kg s.c.
rCB1 [2] = target: T1, rCB1 (Rattus norvegicus, UniProt P20272); format: cell-based; conditions: for functional profile in cAMP assay: CB1
mCB2 = mCB2 (Mus musculus, UniProt P47936); assay: Radioligand competition binding with [3H]CP-55,940, mouse spleen membranes; conditions: from Ki values
[3] = target: CB1-E cannabinoid receptors (Homo sapiens, UniProt P21554); assay: β-arrestin2 translocation assay, U2OS cells expressing CB1-E and β-arrestin2-GFP; conditions: for β-arrestin2 translocation efficacy, 95% confidence interval: normalized to the response of WIN55212-2 set to 1, N = 3; for in vitro functional characterization, CB1 profile: conclusion of the in vitro functional assays
rCB1 [4] = target: T1, rCB1; assay: Radioligand competition binding with [3H]CP-55,940, rat brain membranes; conditions: relative to 11; across rCB1, mCB2 and hCB2
hCB2 = hCB2 (Homo sapiens, UniProt P34972); format: binding; conditions: from Ki values
[5] = tested on: Female Sprague-Dawley rats; assay: Hypothermia: body temperature in rats over 6 h after injection; conditions: rat, up to a dose of 10.0 mg/kg s.c.

T1 sequence (P20272 whole entry): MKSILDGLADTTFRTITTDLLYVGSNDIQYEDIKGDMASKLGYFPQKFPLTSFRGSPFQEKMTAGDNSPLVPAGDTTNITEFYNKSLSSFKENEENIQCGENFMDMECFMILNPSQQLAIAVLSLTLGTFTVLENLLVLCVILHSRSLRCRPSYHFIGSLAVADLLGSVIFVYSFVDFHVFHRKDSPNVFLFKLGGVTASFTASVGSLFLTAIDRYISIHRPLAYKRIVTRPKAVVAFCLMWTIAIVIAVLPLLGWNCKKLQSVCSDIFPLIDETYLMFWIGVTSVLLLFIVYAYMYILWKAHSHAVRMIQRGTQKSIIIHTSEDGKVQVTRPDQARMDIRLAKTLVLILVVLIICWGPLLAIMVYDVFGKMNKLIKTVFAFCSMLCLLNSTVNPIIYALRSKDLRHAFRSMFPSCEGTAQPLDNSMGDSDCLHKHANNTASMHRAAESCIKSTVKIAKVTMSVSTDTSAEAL
CB1-E cannabinoid receptors, sequence (P21554 1-415): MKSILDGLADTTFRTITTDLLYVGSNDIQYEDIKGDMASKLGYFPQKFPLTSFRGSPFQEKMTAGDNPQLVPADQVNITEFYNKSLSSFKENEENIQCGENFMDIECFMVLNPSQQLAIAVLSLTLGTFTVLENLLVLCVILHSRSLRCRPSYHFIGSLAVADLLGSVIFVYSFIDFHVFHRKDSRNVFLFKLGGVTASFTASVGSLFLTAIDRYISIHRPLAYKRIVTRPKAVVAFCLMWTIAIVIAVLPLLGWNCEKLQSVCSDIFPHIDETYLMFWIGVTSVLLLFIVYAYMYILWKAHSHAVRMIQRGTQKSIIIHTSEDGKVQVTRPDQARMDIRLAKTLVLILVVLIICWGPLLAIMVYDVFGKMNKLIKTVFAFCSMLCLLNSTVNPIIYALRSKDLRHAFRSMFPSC
CB1-E cannabinoid receptors, sequence (P25103 309-407 partner): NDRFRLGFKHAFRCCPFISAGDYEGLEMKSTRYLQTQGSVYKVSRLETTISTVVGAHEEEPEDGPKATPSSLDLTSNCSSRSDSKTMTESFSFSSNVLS
mCB2, sequence (P47936 whole entry): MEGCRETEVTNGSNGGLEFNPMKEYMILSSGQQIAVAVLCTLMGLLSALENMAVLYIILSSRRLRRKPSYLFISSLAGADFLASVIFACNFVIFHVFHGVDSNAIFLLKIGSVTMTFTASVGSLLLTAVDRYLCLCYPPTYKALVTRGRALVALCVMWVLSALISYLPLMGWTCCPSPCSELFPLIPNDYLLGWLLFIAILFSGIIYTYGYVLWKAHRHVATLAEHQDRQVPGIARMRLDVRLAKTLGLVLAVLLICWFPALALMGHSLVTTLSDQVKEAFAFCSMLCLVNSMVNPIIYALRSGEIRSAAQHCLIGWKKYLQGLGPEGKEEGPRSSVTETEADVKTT
hCB2, sequence (P34972 whole entry): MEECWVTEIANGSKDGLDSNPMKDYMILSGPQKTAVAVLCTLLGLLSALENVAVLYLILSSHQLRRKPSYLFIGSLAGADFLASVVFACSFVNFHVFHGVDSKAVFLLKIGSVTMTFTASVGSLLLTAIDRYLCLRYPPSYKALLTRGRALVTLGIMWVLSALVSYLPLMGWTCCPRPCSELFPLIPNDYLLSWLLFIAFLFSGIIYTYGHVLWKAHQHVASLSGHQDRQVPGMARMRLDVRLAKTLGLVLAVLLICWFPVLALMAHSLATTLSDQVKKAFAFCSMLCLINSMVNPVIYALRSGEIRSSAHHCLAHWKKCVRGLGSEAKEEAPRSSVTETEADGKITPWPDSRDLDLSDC

| Structure (SMILES) | antinociceptive effects (tail-flick) [1] | EC50 (rCB1 [2]) [nM] | functional profile in cAMP assay (rCB1 [2]) | CB1 selectivity over mCB2 (mCB2) | β-arrestin2 translocation efficacy, 95% confidence interval [3] | in vitro functional characterization, CB1 profile [3] | other results |
| --- | --- | --- | --- | --- | --- | --- | --- |
| CC1(C)Oc2cc(C34CC5CC(CC(C5)C3)C4)cc(O)c2-c2cc(CO)ccc21 [Compound 24] | neither had significant antinociceptive effects | 7.97 | CB1 partial agonist; also recorded: partial CB1 agonist | 15 fold | 0.68–0.94 |  | functional profile in cAMP assay (rCB1 [2]; listed as AM4089): partial agonist |
| CC1(C)Oc2cc(C34CC5CC(CC(C5)C3)C4)cc(O)c2[C@@H]2C[C@@H](CO)CC[C@H]21 [Compound 17, (6aR,9S,10aR)-3-(Adamantan-1-yl)-9-(hydroxymethyl)-6,6-dimethyl-6a,7,8,9,10,10a-hexahydro-6H-benzo[c]chromen-1-ol] |  |  |  |  |  |  | lower affinities than β-hydroxymethyl isomer 11 (rCB1 [4]): 6- to 11 fold |
| CC1(C)Oc2cc(C34CC5CC(CC(C5)C3)C4)cc(O)c2[C@@H]2CC(CO)=CC[C@H]21 [Compound 22, (6aR,10aR)-3-(Adamantan-1-yl)-9-(hydroxymethyl)-6,6-dimethyl-6a, 7, 10, 10a-tetrahydro-6H-benzo[c]chromen-1-ol] |  |  |  |  | 0.54–0.80 | high efficacy CB1 agonists |  |
| CC1(C)Oc2cc(C34CC5CC(CC(C5)C3)C4)cc(O)c2[C@@H]2C[C@H](CO)CC[C@H]21 [Compound 11, (6aR,9R,10aR)-3-(Adamantan-1-yl)-9-(hydroxymethyl)-6,6-dimethyl-6a,7,8,9,10,10a-hexahydro-6H-benzo[c]chromen-1-ol] |  | 1.29 | potent CB1 agonist |  | 0.65–0.92 | high efficacy CB1 agonists | functional profile in cAMP assay (rCB1 [2]; listed as AM4054): agonist |
| CC1(C)Oc2cc(C34CC5CC(CC(C5)C3)C4)cc(O)c2[C@@H]2C[C@H](CCO)CC[C@H]21 [Compound 16, (6aR,9R,10aR)-3-(Adamantan-1-yl)-9-(2-hydroxyethyl)-6,6-dimethyl-6a,7,8,9,10,10a-hexahydro-6H-benzo[c]chromen-1-ol] |  |  |  | ~ 4 fold |  |  | CB1 selectivity over hCB2 (hCB2): ~ 4 fold |
| CC1=CC[C@@H]2[C@@H](C1)c1c(O)cc(C34CC5CC(CC(C5)C3)C4)cc1OC2(C)C [Compound 1] | neither had significant antinociceptive effects |  |  |  | 0.43–0.81 |  | hypothermic effects [5]: did not have hypothermic effects |
